Assays:
Test in all cases: Bliss excess, mean over the matrix (fraction); higher = more synergy
[1] = system: CaR-1 (Colorectal Carcinoma)
How it was run: (§1)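 After 24 hours at 37°C and 5% CO2 in 1536-well plates, cells in DMEM/F12 or RPMI plus 10% FBS received two-drug dose matrices for 72 hours. Viability came from CellTiter-Glo 2.0 luminescence and was scaled as inhibition, anchored at 0 by vehicle wells and at 1 by blank wells. Combination Emax is taken as the second-highest inhibition in the matrix, and Bliss excess as the observed combination effect less EA + EB − EA·EB, with EA and EB the single-agent effects.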

[2] = system: HT-1376 (Bladder Carcinoma)
How it was run: as §1

[3] = system: OVCA420 (Ovarian Carcinoma)
How it was run: as §1

[4] = system: MDA-MB-361 (Breast Carcinoma)
How it was run: as §1

[5] = system: CAL-148 (Breast Carcinoma)
How it was run: as §1

[6] = system: HuP-T4 (Pancreatic Carcinoma)
How it was run: as §1

[7] = system: LNCaP-Clone-FGC (Prostate Carcinoma)
How it was run: as §1

[8] = system: KELLY (Neuroblastoma)
How it was run: as §1

[9] = system: Daoy (Other Solid Carcinomas)
How it was run: as §1

[10] = system: KP-1N (Pancreatic Carcinoma)
How it was run: as §1

[11] = system: LS-180 (Colorectal Carcinoma)
How it was run: as §1

[12] = system: NB10 (Neuroblastoma)
How it was run: as §1

[13] = system: KYSE-520 (Esophageal Squamous Cell Carcinoma)
How it was run: as §1

[14] = system: B-CPAP (Thyroid Gland Carcinoma)
How it was run: as §1

[15] = system: KURAMOCHI (Ovarian Carcinoma)
How it was run: as §1

[16] = system: Hs-578-T (Breast Carcinoma)
How it was run: as §1

[17] = system: HCC1806 (Breast Carcinoma)
How it was run: as §1

[18] = system: LB831-BLC (Bladder Carcinoma)
How it was run: as §1

[19] = system: Calu-3 (Lung Adenocarcinoma)
How it was run: as §1

[20] = system: MFE-296 (Endometrial Carcinoma)
How it was run: as §1

Row | SMILES | Bliss excess [1] | Bliss excess [2] | Bliss excess [3] | Bliss excess [4] | Bliss excess [5] | Bliss excess [6] | Bliss excess [7] | Bliss excess [8] | Bliss excess [9] | Bliss excess [10] | Bliss excess [11] | Bliss excess [12] | Bliss excess [13] | Bliss excess [14] | Bliss excess [15] | Bliss excess [16] | Bliss excess [17] | Bliss excess [18] | Bliss excess [19] | Bliss excess [20]
1 | NC1(C(=O)N[C@@H](CCO)c2ccc(Cl)cc2)CCN(c2ncnc3[nH]ccc23)CC1 [Capivasertib] + CC(C)n1c(=O)n(C)c2cnc3cc(F)c(-c4ccc(OCCCN5CCCCC5)nc4)cc3c21 [AZD1390] (first compound max 10 µM, 7x7, partner max 0.3 µM) | -0.0401 | -0.0399 | -0.0406 | -0.0555 | -0.0509 | -0.0978 | -0.0681 | -0.0322 | -0.0281 | -0.0767 | -0.0332 | -0.0544 | -0.0364 | -0.0897 | -0.0085 | -0.0363 | -0.0732 | -0.0383 | -0.0016 | -0.0695
2 | NC1(C(=O)N[C@@H](CCO)c2ccc(Cl)cc2)CCN(c2ncnc3[nH]ccc23)CC1 [Capivasertib] + CCN(CCO)CCCOc1ccc2c(Nc3cc(CC(=O)Nc4cccc(F)c4)[nH]n3)ncnc2c1 [AZD2811] (first compound max 10 µM, 7x7, partner max 1 µM) | -0.0236 | -0.0314 | -0.017 | 0.0141 | -0.0142 | -0.0614 | 0.006 | -0.0045 | 0.0146 | -0.0423 | -0.0053 | -0.0793 | -0.0495 | -0.0298 | -0.0444 | -0.036 | 0.0012 | -0.0179 | 0.0092 | -0.0593
3 | CC1(C)CCC(CN2CCN(c3ccc(C(=O)NS(=O)(=O)c4ccc(NCC5CCOCC5)c([N+](=O)[O-])c4)c(Oc4cnc5[nH]ccc5c4)c3)CC2)=C(c2ccc(Cl)cc2)C1 [Venetoclax] + Cn1cnc2c(F)c(Nc3ccc(Br)cc3Cl)c(C(=O)NOCCO)cc21 [Selumetinib] (first compound max 1 µM, 7x7, partner max 3 µM) | -0.0511 | -0.0411 | -0.045 | -0.0299 | -0.0148 | 0.0009 | -0.0459 | 0.009 | -0.0185 | -0.0176 | 0.0538 | 0.0021 | -0.0836 | -0.0446 | -0.0333 | 0.0045 | -0.025 | -0.0239 | -0.0214 | -0.0297
4 | Cn1cnc2c(F)c(Nc3ccc(Br)cc3Cl)c(C(=O)NOCCO)cc21 [Selumetinib] + C[C@@H]1COCCN1C2=NC(=NC(=C2)C3(CC3)[S@](=N)(=O)C)C4=C5C=CNC5=NC=C4 [AZD6738] (first compound max 10 µM, 7x7, partner max 10 µM) | -0.069 | -0.021 | 0.078 | -0.0396 | -0.0407 | 0.0891 | -0.0018 | -0.015 | -0.0087 | -0.0061 | -0.0516 | -0.0247 | 0.0227 | -0.0026 | 0.0517 | 0.009 | 0.0496 | -0.0569 | -0.0295 | -0.0543
5 | CN(C)CCCOc1ccc(-c2ccc3ncc4c(c3c2)n(C2CCOCC2)c(=O)n4C)cn1 [AZD0156] + C[C@@H]1COCCN1C2=NC(=NC(=C2)C3(CC3)[S@](=N)(=O)C)C4=C5C=CNC5=NC=C4 [AZD6738] (first compound max 1 µM, 7x7, partner max 10 µM) | -0.0449 | -0.0193 | 0.0052 | 0.0366 | -0.0441 | 0.0118 | -0.056 | 0.0044 | 0.0287 | 0.0261 | -0.0347 | -0.038 | -0.0172 | 0.027 | -0.0119 | -0.0157 | 0.0241 | -0.0333 | -0.0205 | -0.0485
6 | C=CCn1c(=O)c2cnc(Nc3ccc(N4CCN(C)CC4)cc3)nc2n1-c1cccc(C(C)(C)O)n1 [AZD1775] + O=C(c1cc(Cc2n[nH]c(=O)c3ccccc23)ccc1F)N1CCN(C(=O)C2CC2)CC1 [Olaparib] (first compound max 1 µM, partner max 10 µM) | -0.0077 | -0.0509 | 0.0916 | -0.0357 | 0.0068 | 0.0075 | -0.0242 | 0.0038 | 0.044 | -0.0239 | -0.0188 | -0.0088 | -0.0301 | 0.0393 | -0.0358 | -0.0965 | -0.0294 | -0.01 | -0.0243 | -0.0218
7 | C[C@@H](c1ccc2nccn2c1)n1nnc2ncc(-c3cnn(C)c3)nc21 [Savolitinib] + Cc1c2c(nn1C)CSCc1cc(n(C)n1)CSc1cc(c3ccccc3c1)OCCCc1c(C(=O)O)n(C)c3c-2c(Cl)ccc13 [AZD5991] (first compound max 1 µM, 7x7, partner max 1 µM) | -0.0725 | -0.0206 | -0.0134 | -0.0841 | 0.0087 | -0.0618 | -0.0148 | -0.0138 | -0.0141 | -0.0637 | -0.015 | -0.0278 | -0.0615 | -0.0221 | -0.0332 | -0.0137 | 0.0014 | -0.0148 | -0.021 | -0.0228
8 | COc1cccc(OCCCN)c1-c1cc(Nc2cnc(C#N)cn2)n[nH]1 [Prexasertib] + C=CCn1c(=O)c2cnc(Nc3ccc(N4CCN(C)CC4)cc3)nc2n1-c1cccc(C(C)(C)O)n1 [AZD1775] (first compound max 1 µM, partner max 1 µM) | 0.086 | -0.0538 | 0.0044 | 0.0331 | 0.136 | 0.0747 | -0.0172 | 0.0252 | 0.0573 | 0.0763 | 0.184 | 0.13 | 0.0142 | 0.154 | 0.0282 | -0.0242 | 0.0552 | 0.168 | 0.0255 | 0.116
9 | Cc1c2c(nn1C)CSCc1cc(n(C)n1)CSc1cc(c3ccccc3c1)OCCCc1c(C(=O)O)n(C)c3c-2c(Cl)ccc13 [AZD5991] + Cn1cnc2c(F)c(Nc3ccc(Br)cc3Cl)c(C(=O)NOCCO)cc21 [Selumetinib] (first compound max 1 µM, 7x7, partner max 3 µM) | -0.03 | 0.0144 | 0.0316 | -0.0168 | 0.0184 | 0.113 | -0.0301 | 0.0281 | 0.02 | -0.029 | 0.0454 | 0.0122 | -0.0208 | -0.0219 | 0.031 | -0.0568 | 0.0254 | -0.018 | -0.015 | 0.0234
10 | CC1(C)CCC(CN2CCN(c3ccc(C(=O)NS(=O)(=O)c4ccc(NCC5CCOCC5)c([N+](=O)[O-])c4)c(Oc4cnc5[nH]ccc5c4)c3)CC2)=C(c2ccc(Cl)cc2)C1 [Venetoclax] + CCN(CCO)CCCOc1ccc2c(Nc3cc(CC(=O)Nc4cccc(F)c4)[nH]n3)ncnc2c1 [AZD2811] (first compound max 1 µM, 7x7, partner max 1 µM) | -0.055 | -0.0605 | -0.0114 | 0.0884 | -0.0461 | -0.0061 | -0.0706 | 0.0038 | -0.0311 | -0.0182 | -0.0106 | -0.0539 | -0.0294 | 0.0031 | -0.0237 | -0.0451 | 0.0137 | -0.0073 | -0.0057 | -0.013
11 | Cc1c2c(nn1C)CSCc1cc(n(C)n1)CSc1cc(c3ccccc3c1)OCCCc1c(C(=O)O)n(C)c3c-2c(Cl)ccc13 [AZD5991] + C[C@@H]1COCCN1C2=NC(=NC(=C2)C3(CC3)[S@](=N)(=O)C)C4=C5C=CNC5=NC=C4 [AZD6738] (first compound max 1 µM, 7x7, partner max 10 µM) | -0.0134 | 0.0144 | 0.0076 | 0.0182 | 0.0584 | 0.0361 | 0.0123 | 0.0647 | 0.0268 | 0.0679 | 0.0196 | 0.0339 | 0.0162 | 0.0032 | 0.0587 | -0.0254 | 0.0218 | 0.0641 | 0.0119 | 0.0723
12 | CN(C)CCCOc1ccc(-c2ccc3ncc4c(c3c2)n(C2CCOCC2)c(=O)n4C)cn1 [AZD0156] + C=CCn1c(=O)c2cnc(Nc3ccc(N4CCN(C)CC4)cc3)nc2n1-c1cccc(C(C)(C)O)n1 [AZD1775] (first compound max 1 µM, partner max 1 µM) | -0.0445 | -0.134 | -0.0225 | -0.006 | -0.0318 | -0.022 | -0.045 | -0.0002 | -0.0151 | -0.0207 | -0.0459 | -0.0093 | -0.0232 | -0.0255 | -0.031 | -0.0457 | -0.0219 | -0.104 | -0.0378 | -0.0553
13 | COc1cccc(OCCCN)c1-c1cc(Nc2cnc(C#N)cn2)n[nH]1 [Prexasertib] + C[C@@H]1COCCN1C2=NC(=NC(=C2)C3(CC3)[S@](=N)(=O)C)C4=C5C=CNC5=NC=C4 [AZD6738] (first compound max 1 µM, 7x7, partner max 10 µM) | 0.0097 | -0.0105 | -0.0214 | -0.018 | 0.0988 | -0.0504 | -0.0427 | 0.0187 | 0.0032 | 0.0331 | 0.0194 | -0.0145 | -0.0696 | -0.0345 | -0.0707 | -0.0779 | -0.0472 | 0.019 | -0.0108 | -0.0456

Source: the supplement of paper PMC11061612
